This is an account of results in patent US7517517B2 (Janssen Pharmaceutica N.V., priority 2002, dated 2009).

Values joined by “and” are separate entries in the source; they are usually repeats but may differ in a detail not shown here. Identical values can stand only once. Like-named read-outs stand apart in the source and are kept apart here.

Data set [1] has as its target T1, rat mGlu1a receptor (Rattus norvegicus, UniProt P23385).
T1 construct: host or cells: CHO-dhfr- cells
Description: Intracellular Ca2+ response in rat mGlu1a receptor expressing CHO-dhfr− cells (FLIPR). It is filed as cell-based. To be noted: CHO-dhfr− cells expressing rat mGlu1a; same assay; read-out: IC50, inhibition of the glutamate-induced increase in [Ca2+]i.

In data set [2] the target is T1, rat mGlu1a receptor. The experiment in a line: [3H]quisqualate binding to rat mGlu1a receptor CHO-dhfr− membranes (saturation, inhibition).
Data set [3] deals with T1, rat mGlu1a receptor. Description: [3H]Compound A binding to rat mGlu1a receptor CHO-dhfr− membranes (saturation, kinetics, inhibition). To be noted: for Ki: 2.5 nM [3H]Compound A, 30 min at 4° C.; for inhibition of [3H]Compound A binding (in words): rat mGlu1a receptor CHO-dhfr− membranes.
Data set [4] deals with T2, cloned rat mGlu1 receptor (Rattus norvegicus, UniProt P23385).
T2 construct: expressed in transfected cells; host or cells: CHO cells
Description: Signal transduction at the cloned rat mGlu1 receptor in CHO cells (glutamate-induced Ca2+ rise, FLIPR). It is filed as cell-based.

The next data set addresses mGlu1 receptor (Rattus norvegicus, UniProt P23385). Description: [3H]Compound A binding to rat brain membranes (cortex, hippocampus, striatum, cerebellum). As to conditions: tested up to 30 μM. How it is done:
Tissue preparation. Male Wistar rats (˜200 g) were sacrificed by decapitation. The brains were rapidly removed and cortex, hippocampus, striatum and cerebellum were immediately dissected. The fresh tissue was homogenized with an Ultra Turrax in 20 volumes of 50 mM Tris-HCl, pH 7.4 and tissue was centrifuged at 23,500 g for 10 min. After homogenisation using a DUAL homogeniser, membranes were washed twice by centrifugation at 23,500 g for 10 min. The final pellet was suspended in 10 volumes of 50 mM Tris-HCl, pH 7.4 and frozen at −80° C.
In vitro binding assay. After thawing, membranes from rat cortex, cerebellum, striatum and hippocampus were rehomogenized using a DUAL and suspended in ice-cold binding buffer containing 50 mM Tris-HCl, 1.2 mM MgCl2, 2 mM CaCl2, pH 7.4. The binding assay was carried out in a total volume of 0.5 ml containing 2.5 nM [^3H]Compound A and a membrane aliquot corresponding to 40 μg for cerebellar membranes, 60 μg for hippocampal membranes, 80 μg for striatal membranes or 150 μg for cortical membranes. […] After incubation for 30 min at 4° C., the labelled membranes were washed and harvested by rapid vacuum filtration over Whatman GF/C glass-fibre filters using a 40-well filtration manifold and radioactivity collected on the filters was counted as above.
Data analysis was performed using the GraphPad Prism program (GraphPad Prism Software, Inc., San Diego, Calif.). Saturation binding experiments were analysed using a non-linear regression analysis. Inhibition curves were fitted using non-linear regression analysis fitting the one-site competition equation: Y=Bottom+((Top−Bottom)/1+10^X-LogIC50). Ki values were calculated using the Cheng-Prusoff equation: Ki=IC50/[1+([C]/KD)] where C is the concentration of radioligand and KD is the dissociation constant of the radioligand (Cheng and Prusoff, Biochem. Pharmacol. 22, 3099-3108, 1973). The observed on (kob) and off (koff) rate were calculated from association-dissociation curves using the one-phase-exponential association and decay equations in the Prism program, respectively. kon was calculated by subtracting koff from kob and dividing by the radioligand concentration. The two-tailed Student's t-test was used for statistical evaluation of the binding data: * p<0.05, ** p<0.01 and *** p<0.001. The Dunnett's t-test following a 2-way analysis of variance (with as factors compound concentration and experiment) were used to analyse the data from the IP experiments.

The mark [5] stands for this setting: inhibition of [3H]quisqualate binding, rat mGlu1a receptor CHO-dhfr− membranes, mean ± SD of 2 experiments.
The mark [6] stands for this setting: inhibition of glutamate-induced intracellular Ca2+ rise, CHO cells expressing mGlu1 receptor, compounds with pIC50 between 7 and 8.

T1 sequence (P23385 19-1199): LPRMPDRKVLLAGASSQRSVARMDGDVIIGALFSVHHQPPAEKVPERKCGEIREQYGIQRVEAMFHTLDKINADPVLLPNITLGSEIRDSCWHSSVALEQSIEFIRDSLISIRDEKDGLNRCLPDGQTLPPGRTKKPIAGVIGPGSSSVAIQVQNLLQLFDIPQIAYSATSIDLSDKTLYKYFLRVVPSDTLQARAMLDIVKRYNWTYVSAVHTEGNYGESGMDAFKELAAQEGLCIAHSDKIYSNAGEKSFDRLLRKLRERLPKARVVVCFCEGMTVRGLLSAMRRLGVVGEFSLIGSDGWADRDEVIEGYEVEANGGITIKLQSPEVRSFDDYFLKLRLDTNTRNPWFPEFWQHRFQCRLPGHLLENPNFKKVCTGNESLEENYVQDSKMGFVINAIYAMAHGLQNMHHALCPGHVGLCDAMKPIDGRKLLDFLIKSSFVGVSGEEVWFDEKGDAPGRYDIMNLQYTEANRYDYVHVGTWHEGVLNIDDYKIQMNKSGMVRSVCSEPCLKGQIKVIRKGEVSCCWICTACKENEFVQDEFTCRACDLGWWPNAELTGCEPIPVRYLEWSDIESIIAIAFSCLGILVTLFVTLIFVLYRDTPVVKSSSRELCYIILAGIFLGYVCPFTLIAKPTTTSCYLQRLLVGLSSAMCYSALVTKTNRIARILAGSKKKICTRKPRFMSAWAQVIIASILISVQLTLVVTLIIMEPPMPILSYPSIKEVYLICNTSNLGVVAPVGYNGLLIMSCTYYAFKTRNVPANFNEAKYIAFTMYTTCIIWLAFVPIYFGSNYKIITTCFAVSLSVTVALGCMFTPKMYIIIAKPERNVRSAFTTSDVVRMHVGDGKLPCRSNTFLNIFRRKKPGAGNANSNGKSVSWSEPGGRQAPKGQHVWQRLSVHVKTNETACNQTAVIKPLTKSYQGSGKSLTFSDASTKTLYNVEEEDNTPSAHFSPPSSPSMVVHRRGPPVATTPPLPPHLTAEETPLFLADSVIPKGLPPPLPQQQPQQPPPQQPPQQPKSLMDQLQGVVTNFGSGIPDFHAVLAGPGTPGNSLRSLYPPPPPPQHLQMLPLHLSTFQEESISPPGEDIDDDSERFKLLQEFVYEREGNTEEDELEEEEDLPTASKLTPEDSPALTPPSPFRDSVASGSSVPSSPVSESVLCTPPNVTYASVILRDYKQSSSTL
T2 sequence (P23385 19-1199): as above

In general, IC50 refers to the concentration that inhibits the measured activity by half. As usually defined, the Ki is the dissociation constant of the complex between target and ligand, obtained from inhibition or displacement. Consider `CCOC(=O)[C@]12CC1/C(=N\O)c1ccccc1O2` (mixture of isomers) [CPCCOEt, reference compound], for which, at rat mGlu1a receptor [1], the IC50 worked out at 10.3 ± 0.8 µM. For the same compound, the Ki on rat mGlu1a receptor [2] is more than 1000 µM; on rat mGlu1a receptor [3] (mean ± SD of 3–4 experiments), 4900 nM.

For orientation: Hill coefficient means the slope factor of the fitted curve. At rat mGlu1a receptor [2] (setting [5]), `NC1(C(=O)O)CCc2cc(C(=O)O)ccc21` (stereo not drawn) [AIDA, reference compound] displayed a Hill coefficient of 0.98 ± 0.03. The figures for the Ki on rat mGlu1a receptor [2] (setting [5]) and at rat mGlu1a receptor [3] (mean ± SD of 3–4 experiments) were 98.3 ± 15.4 µM and more than 1e+06 nM, respectively. In addition, on rat mGlu1a receptor [3], the “inhibition of [3H]Compound A binding (in words)” value (from here on “inhibition”) was “did not inhibit”.

For `N[C@H](C(=O)O)c1ccc(C(=O)O)c(O)c1` [(S)-4C3HPG], the Hill coefficient on rat mGlu1a receptor [2] (setting [5]) is recorded as 0.98 ± 0.02. Also, the Ki on rat mGlu1a receptor [2] (setting [5]) was 1.65 ± 0.06 µM; at rat mGlu1a receptor [3] (mean ± SD of 3–4 experiments), more than 1e+06 nM.

Usually melting point stands for the temperature, or range, at which the solid turns liquid. In the case of `CCc1cc2cc(C(=O)C3CCC(OC)CC3)ccc2nc1C#C[Si](C)(C)C` (stereo not drawn) [Compound 14], the melting point came to 114 °C. The same compound showed an IC50 in data set [4] of 0.0631 µM.

As for `Cc1cc(C(=O)O)ccc1[C@H](N)C(=O)O` [LY367385, reference compound], on rat mGlu1a receptor [2] (setting [5]), the Hill coefficient stood at 0.99 ± 0.01 and the Ki turned out to be 1.18 ± 0.47 µM. The Ki on rat mGlu1a receptor [3] (mean ± SD of 3–4 experiments) was more than 1e+06 nM. At rat mGlu1a receptor [3], the “inhibition” value is recorded as “did not inhibit”.

Take `Cc1cccc(C#Cc2ccccc2)n1` [MPEP, reference compound]: on mGlu1 receptor, the “effect on [3H]Compound A binding to rat cerebellar membranes” value was “did not affect”.

For `N[C@@H](Cn1oc(=O)[nH]c1=O)C(=O)O` [quisqualate, reference compound], the Hill coefficient on rat mGlu1a receptor [2] (setting [5]) is 0.98 ± 0.01. The “inhibition” value on rat mGlu1a receptor [3] is “did not inhibit”.

The compound `N[C@@]1(C(=O)O)CC[C@@H](C(=O)O)C1` [1S,3R-ACPD, reference compound] showed a Hill coefficient at rat mGlu1a receptor [2] (setting [5]) of 0.97 ± 0.01. The “inhibition” value on rat mGlu1a receptor [3] is “did not inhibit”.

A word on the pIC50: it is the IC50 on a negative log10 scale, so that one unit is a factor of ten. Read a low pIC50 as a high IC50. The compound `CCc1cc2cc(C(=O)C3CCC(OC)CC3)ccc2nc1C` (stereo not drawn) [Compound 27] displayed a melting point of 110 °C. This compound also registered a pIC50 in data set [4] (50% inhibition of the glutamate-induced intracellular Ca2+ rise, CHO cells, FLIPR) of 8.527.

On rat mGlu1a receptor [2] (setting [5]), `N[C@H](C(=O)O)c1cc(O)cc(O)c1` [(S)-3,5-DHPG, reference compound] had a Hill coefficient of 0.97 ± 0.00 and a Ki of 1.42 µM. At rat mGlu1a receptor [3] (mean ± SD of 3–4 experiments), the Ki is more than 1e+06 nM. In addition, the “inhibition” value on rat mGlu1a receptor [3] is given as “did not inhibit”.

Turning to `C#Cc1nc2ccc(C(=O)C3CCC(OC)CC3)cc2cc1CC` (stereo not drawn) [Compound 15], the melting point is 132 °C and 133 °C. The compound further had an IC50 in data set [4] (setting [6]) of 0.0117 µM.

Compound `CCc1cc2cc(C(=O)C3CCC(OC)CC3)ccc2n2nnnc12` (stereo not drawn) [Compound 35] displayed a melting point of 160 °C. This compound had an IC50 in data set [4] (setting [6]) of 0.0437 µM.

On to `O=C(NC12CC3CC(CC(C3)C1)C2)c1cnc2ccccc2n1` [NPS 2390, reference compound], for which the values for the Ki at rat mGlu1a receptor [2] (setting [5]) and on rat mGlu1a receptor [3] (mean ± SD of 3–4 experiments) were more than 1000 µM and 1.36 ± 0.5 nM, respectively. The “effect on [3H]quisqualate binding (in words)” value at rat mGlu1a receptor [2] (rat mGlu1a receptor CHO-dhfr− membranes) was “did not affect”. On rat mGlu1a receptor [3] (inhibition of [3H]Compound A-binding, mean ± SD of 3–4 experiments), this compound returned a Hill coefficient of 0.97 ± 0.02.

Regarding `N[C@H](C(=O)O)c1ccc(C(=O)O)cc1` [(S)-4CPG, reference compound], on rat mGlu1a receptor [2] (setting [5]), the Hill coefficient is reported as 0.98 ± 0.00 and the Ki is 4.51 ± 0.78 µM. On rat mGlu1a receptor [3] (mean ± SD of 3–4 experiments), this compound came in with a Ki of more than 1e+06 nM. Further, the “inhibition” value on rat mGlu1a receptor [3] is given as “did not inhibit”.
